Results taken from the supplement of paper PMC10307832.

How the values were obtained:
Assay in all cases: relative viability (nuclei count vs DMSO), 5 days (fraction); higher = more cells survive
[1] = test system: NCI-H441
In short: (§1)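 Dosing by pin tool came one day after lung cancer cell lines were seeded in 1536-well plates, using either one drug or a fixed anchor-drug dose plus five library-drug doses (not always all listed) in √10 steps. After 5 days, nuclei were counted on 4× images. Relative viability is treated-well nuclei count divided by vehicle-well nuclei count, and values are medians of duplicate plates.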

[2] = test system: NCI-H23
In short: as §1

[3] = test system: NCI-H1975
In short: as §1

[4] = test system: NCI-H1734
In short: as §1

[5] = test system: PC-3 [JPC-3]
In short: as §1

[6] = test system: SK-MES-1
In short: as §1

[7] = test system: LOU-NH91
In short: as §1

[8] = test system: NCI-H1755
In short: as §1

[9] = test system: H3255
In short: as §1

[10] = test system: NCI-H1563
In short: as §1

[11] = test system: A-427
In short: as §1

[12] = test system: COR-L 105
In short: as §1

[13] = test system: NCI-H596
In short: as §1

[14] = test system: HCC-366
In short: as §1

[15] = test system: EKVX
In short: as §1

[16] = test system: NCI-H1666
In short: as §1

[17] = test system: NCI-H520
In short: as §1

[18] = test system: LK-2
In short: as §1

[19] = test system: EMC-BAC-2
In short: as §1

CCN(CC)CCCCNc1ncc2cc(-c3cc(OC)cc(OC)c3)c(NC(=O)NC(C)(C)C)nc2n1 + C[C@]1(O)C[C@@H](c2nc(-c3ccc4ccc(-c5ccccc5)nc4c3)c3c(N)nccn32)C1 [Linsitinib] (partner 1 µM)
relative viability ([1]; first compound 0.01 µM): 0.626 | relative viability ([1]; first compound 0.03162 µM): 0.441 | relative viability ([1]; first compound 0.1 µM): 0.808 | relative viability ([1]; first compound 0.3162 µM): 0.635 | relative viability ([1]; first compound 1 µM): 0.432 | relative viability ([2]; first compound 0.01 µM): 0.669 | relative viability ([2]; first compound 0.03162 µM): 0.63 | relative viability ([2]; first compound 0.1 µM): 0.644 | relative viability ([2]; first compound 0.3162 µM): 0.601 | relative viability ([2]; first compound 1 µM): 0.516 | relative viability ([3]; first compound 0.01 µM): 0.976 | relative viability ([3]; first compound 0.03162 µM): 0.949 | relative viability ([3]; first compound 0.1 µM): 1.11 | relative viability ([3]; first compound 0.3162 µM): 1.01 | relative viability ([3]; first compound 1 µM): 0.856 | relative viability ([4]; first compound 0.01 µM): 0.864 | relative viability ([4]; first compound 0.03162 µM): 0.923 | relative viability ([4]; first compound 0.1 µM): 0.993 | relative viability ([4]; first compound 0.3162 µM): 0.913 | relative viability ([4]; first compound 1 µM): 0.835 | relative viability ([5]; first compound 0.01 µM): 0.999 | relative viability ([5]; first compound 0.03162 µM): 0.982 | relative viability ([5]; first compound 0.1 µM): 0.954 | relative viability ([5]; first compound 0.3162 µM): 1.03 | relative viability ([5]; first compound 1 µM): 0.993 | relative viability ([6]; first compound 0.01 µM): 1.04 | relative viability ([6]; first compound 0.03162 µM): 1.26 | relative viability ([6]; first compound 0.1 µM): 1.16 | relative viability ([6]; first compound 0.3162 µM): 1.16 | relative viability ([6]; first compound 1 µM): 1.09 | relative viability ([7]; first compound 0.01 µM): 0.882 | relative viability ([7]; first compound 0.03162 µM): 0.938 | relative viability ([7]; first compound 0.1 µM): 0.968 | relative viability ([7]; first compound 0.3162 µM): 0.996 | relative viability ([7]; first compound 1 µM): 0.93 | relative viability ([8]; first compound 0.01 µM): 1.08 | relative viability ([8]; first compound 0.03162 µM): 0.979 | relative viability ([8]; first compound 0.1 µM): 0.995 | relative viability ([8]; first compound 0.3162 µM): 1.08 | relative viability ([8]; first compound 1 µM): 0.925 | relative viability ([9]; first compound 0.01 µM): 1.02 | relative viability ([9]; first compound 0.03162 µM): 1.04 | relative viability ([9]; first compound 0.1 µM): 0.986 | relative viability ([9]; first compound 0.3162 µM): 1.06 | relative viability ([9]; first compound 1 µM): 0.892 | relative viability ([10]; first compound 0.01 µM): 1.29 | relative viability ([10]; first compound 0.03162 µM): 1.34 | relative viability ([10]; first compound 0.1 µM): 1.13 | relative viability ([10]; first compound 0.3162 µM): 1.09 | relative viability ([10]; first compound 1 µM): 0.889 | relative viability ([11]; first compound 0.01 µM): 1.12 | relative viability ([11]; first compound 0.03162 µM): 1.17 | relative viability ([11]; first compound 0.1 µM): 1.21 | relative viability ([11]; first compound 0.3162 µM): 1.18 | relative viability ([11]; first compound 1 µM): 0.993 | relative viability ([12]; first compound 0.01 µM): 1.1 | relative viability ([12]; first compound 0.03162 µM): 0.794 | relative viability ([12]; first compound 0.1 µM): 1.02 | relative viability ([12]; first compound 0.3162 µM): 0.963 | relative viability ([12]; first compound 1 µM): 0.868 | relative viability ([13]; first compound 0.01 µM): 1.1 | relative viability ([13]; first compound 0.03162 µM): 1.05 | relative viability ([13]; first compound 0.1 µM): 1.05 | relative viability ([13]; first compound 0.3162 µM): 1.07 | relative viability ([13]; first compound 1 µM): 0.814 | relative viability ([14]; first compound 0.01 µM): 0.622 | relative viability ([14]; first compound 0.03162 µM): 0.706 | relative viability ([14]; first compound 0.1 µM): 0.66 | relative viability ([14]; first compound 0.3162 µM): 0.887 | relative viability ([14]; first compound 1 µM): 0.505 | relative viability ([15]; first compound 0.01 µM): 1.11 | relative viability ([15]; first compound 0.03162 µM): 1.1 | relative viability ([15]; first compound 0.1 µM): 0.93 | relative viability ([15]; first compound 0.3162 µM): 1.09 | relative viability ([15]; first compound 1 µM): 0.883 | relative viability ([16]; first compound 0.01 µM): 1.04 | relative viability ([16]; first compound 0.03162 µM): 0.674 | relative viability ([16]; first compound 0.1 µM): 0.997 | relative viability ([16]; first compound 0.3162 µM): 0.944 | relative viability ([16]; first compound 1 µM): 0.726 | relative viability ([17]; first compound 0.01 µM): 0.998 | relative viability ([17]; first compound 0.03162 µM): 1.02 | relative viability ([17]; first compound 0.1 µM): 0.948 | relative viability ([17]; first compound 0.3162 µM): 0.912 | relative viability ([17]; first compound 1 µM): 0.332 | relative viability ([18]; first compound 0.01 µM): 0.536 | relative viability ([18]; first compound 0.03162 µM): 0.339 | relative viability ([18]; first compound 0.1 µM): 0.401 | relative viability ([18]; first compound 0.3162 µM): 0.356 | relative viability ([18]; first compound 1 µM): 0.17 | relative viability ([19]; first compound 0.01 µM): 0.873 | relative viability ([19]; first compound 0.03162 µM): 0.836 | relative viability ([19]; first compound 0.1 µM): 0.821 | relative viability ([19]; first compound 0.3162 µM): 0.838 | relative viability ([19]; first compound 1 µM): 0.771

O=c1cc(N2CCOCC2)oc2c(-c3cccc4c3sc3ccccc34)cccc12 + C[C@]1(O)C[C@@H](c2nc(-c3ccc4ccc(-c5ccccc5)nc4c3)c3c(N)nccn32)C1 [Linsitinib] (partner 1 µM)
relative viability ([1]; first compound 0.01 µM): 0.53 | relative viability ([1]; first compound 0.03162 µM): 0.518 | relative viability ([1]; first compound 0.1 µM): 0.582 | relative viability ([1]; first compound 0.3162 µM): 0.555 | relative viability ([1]; first compound 1 µM): 0.594 | relative viability ([2]; first compound 0.01 µM): 0.623 | relative viability ([2]; first compound 0.03162 µM): 0.641 | relative viability ([2]; first compound 0.3162 µM): 0.663 | relative viability ([2]; first compound 1 µM): 0.476 | relative viability ([3]; first compound 0.01 µM): 0.833 | relative viability ([3]; first compound 0.03162 µM): 0.922 | relative viability ([3]; first compound 0.1 µM): 0.94 | relative viability ([3]; first compound 0.3162 µM): 0.929 | relative viability ([3]; first compound 1 µM): 1 | relative viability ([4]; first compound 0.01 µM): 0.963 | relative viability ([4]; first compound 0.03162 µM): 1.03 | relative viability ([4]; first compound 0.1 µM): 0.906 | relative viability ([4]; first compound 0.3162 µM): 0.843 | relative viability ([4]; first compound 1 µM): 0.89 | relative viability ([5]; first compound 0.01 µM): 0.967 | relative viability ([5]; first compound 0.03162 µM): 0.865 | relative viability ([5]; first compound 0.1 µM): 0.943 | relative viability ([5]; first compound 0.3162 µM): 0.916 | relative viability ([5]; first compound 1 µM): 0.913 | relative viability ([6]; first compound 0.01 µM): 1.17 | relative viability ([6]; first compound 0.03162 µM): 1.02 | relative viability ([6]; first compound 0.1 µM): 1.05 | relative viability ([6]; first compound 0.3162 µM): 1.09 | relative viability ([6]; first compound 1 µM): 1.01 | relative viability ([7]; first compound 0.01 µM): 0.857 | relative viability ([7]; first compound 0.03162 µM): 0.937 | relative viability ([7]; first compound 0.1 µM): 0.938 | relative viability ([7]; first compound 0.3162 µM): 1.03 | relative viability ([7]; first compound 1 µM): 0.936 | relative viability ([8]; first compound 0.01 µM): 1.04 | relative viability ([8]; first compound 0.03162 µM): 0.98 | relative viability ([8]; first compound 0.1 µM): 1.03 | relative viability ([8]; first compound 0.3162 µM): 1.03 | relative viability ([8]; first compound 1 µM): 1.01 | relative viability ([9]; first compound 0.01 µM): 1 | relative viability ([9]; first compound 0.03162 µM): 0.988 | relative viability ([9]; first compound 0.1 µM): 1.14 | relative viability ([9]; first compound 0.3162 µM): 0.95 | relative viability ([9]; first compound 1 µM): 1.09 | relative viability ([10]; first compound 0.01 µM): 1.18 | relative viability ([10]; first compound 0.03162 µM): 1.21 | relative viability ([10]; first compound 0.1 µM): 1.19 | relative viability ([10]; first compound 0.3162 µM): 1.14 | relative viability ([10]; first compound 1 µM): 1 | relative viability ([11]; first compound 0.01 µM): 1.13 | relative viability ([11]; first compound 0.03162 µM): 1.12 | relative viability ([11]; first compound 0.1 µM): 1.23 | relative viability ([11]; first compound 0.3162 µM): 1.12 | relative viability ([11]; first compound 1 µM): 1.11 | relative viability ([12]; first compound 0.01 µM): 0.858 | relative viability ([12]; first compound 0.03162 µM): 0.792 | relative viability ([12]; first compound 0.1 µM): 0.851 | relative viability ([12]; first compound 0.3162 µM): 0.773 | relative viability ([12]; first compound 1 µM): 0.895 | relative viability ([13]; first compound 0.01 µM): 1.14 | relative viability ([13]; first compound 0.03162 µM): 1.02 | relative viability ([13]; first compound 0.1 µM): 1.19 | relative viability ([13]; first compound 0.3162 µM): 0.968 | relative viability ([13]; first compound 1 µM): 0.921 | relative viability ([14]; first compound 0.01 µM): 0.671 | relative viability ([14]; first compound 0.03162 µM): 0.656 | relative viability ([14]; first compound 0.1 µM): 0.797 | relative viability ([14]; first compound 0.3162 µM): 0.662 | relative viability ([14]; first compound 1 µM): 0.625 | relative viability ([15]; first compound 0.01 µM): 0.989 | relative viability ([15]; first compound 0.03162 µM): 0.907 | relative viability ([15]; first compound 0.1 µM): 1.19 | relative viability ([15]; first compound 0.3162 µM): 0.956 | relative viability ([15]; first compound 1 µM): 1.01 | relative viability ([16]; first compound 0.01 µM): 0.735 | relative viability ([16]; first compound 0.03162 µM): 0.803 | relative viability ([16]; first compound 0.1 µM): 0.972 | relative viability ([16]; first compound 0.3162 µM): 0.776 | relative viability ([16]; first compound 1 µM): 0.636 | relative viability ([17]; first compound 0.01 µM): 1.02 | relative viability ([17]; first compound 0.03162 µM): 1.01 | relative viability ([17]; first compound 0.1 µM): 1.22 | relative viability ([17]; first compound 0.3162 µM): 0.923 | relative viability ([17]; first compound 1 µM): 0.876 | relative viability ([18]; first compound 0.01 µM): 0.585 | relative viability ([18]; first compound 0.03162 µM): 0.754 | relative viability ([18]; first compound 0.1 µM): 0.83 | relative viability ([18]; first compound 0.3162 µM): 0.554 | relative viability ([18]; first compound 1 µM): 0.69 | relative viability ([19]; first compound 0.01 µM): 0.822 | relative viability ([19]; first compound 0.03162 µM): 0.867 | relative viability ([19]; first compound 0.1 µM): 0.813 | relative viability ([19]; first compound 0.3162 µM): 0.773 | relative viability ([19]; first compound 1 µM): 0.806
